{"source": "patent EP0200132A2", "about": "“(Aminoalkylthio)hydroxydibenzoxepins, a process for their preparation and their use as medicaments” (HOECHST-ROUSSEL PHARMACEUTICALS INCORPORATED, priority 1985, dated 1986)", "key": {"[1]": {"system": "tetrabenazine-induced ptosis", "assay": "inhibition of tetrabenazine-induced depression (ptosis) in mice", "format": "in vivo"}, "[2]": {"system": "phenyl-p-quinone writhing", "assay": "phenyl-p-quinone writhing assay in mice", "format": "in vivo", "details": "Mus musculus, sc", "source_text": "The (aminoalkylthio)hydroxydibenzoxepins of the present invention are also useful as analgetic agents due to their ability to alleviate pain in mammals. […] Exptl."}}}
{"compound": "CN(C)CCC=C1c2ccccc2CCc2ccccc21", "note": "[Amitriptyline, reference compound]", "values": [{"measurement": "EDso (tetrabenazine-induced ptosis)", "setting": "[1]; intraperitoneally, standard antidepressant, unit not given", "value": 1.5}]}
{"compound": "CNCCSC1=Cc2cc(O)ccc2Oc2ccc(F)cc21", "note": "[Example 2, 2-Fluoro-8-hydroxy-11-[β-(methylamino)ethylthio)-dibenz-[b,f]oxepin]", "values": [{"measurement": "ED50", "setting": "[1]; Mus musculus, ip, intraperitoneal, read-out: intraperitoneal dose effecting a 50% inhibition of tetrabenazine-induced ptosis (ED50)", "value": 3.3, "unit": "mg/kg"}, {"measurement": "inhibition at 20 mg/kg", "setting": "[2]; mice, subcutaneous dose 20 mg/kg of body weight", "value": 69, "unit": "%"}]}
{"compound": "CNCCSC1=Cc2ccc(O)cc2Oc2ccc(F)cc21", "note": "[Example 3, 2-Fluoro-7-hydroxy-11-[β-(methylamino)ethylthio]-dibenz-[b,f]oxepin]", "values": [{"measurement": "inhibition at 20 mg/kg", "setting": "[1]; Mus musculus, ip, intraperitoneal dose 20 mg/kg of body weight", "value": 89, "unit": "%"}, {"measurement": "inhibition at 10 mg/kg", "setting": "[2]; mice, subcutaneous dose 10 mg/kg of body weight", "value": 42, "unit": "%"}]}
{"compound": "CCC(=O)O[C@](Cc1ccccc1)(c1ccccc1)[C@H](C)CN(C)C", "note": "[Propoxyphene, reference compound]", "values": [{"measurement": "ED50", "setting": "[2]; read-out: dose giving calculated 50% inhibition of writhing", "value": 3.9, "unit": "mg/kg"}]}
